Test results as given in publication PMC5655360, “Establishment of a novel hepatocyte model that expresses four cytochrome P450 genes stably via mammalian-derived artificial chromosome for pharmacokinetics and toxicity studies” (PLoS ONE, 2017).
Like-named read-outs stand apart in the source and are kept apart here.

Tests used:
[1] = target: T1, CYP2D6 (Homo sapiens, UniProt P10635); assay: cell-based
Experimental: (§1) Measurement of the activity of all four CYPs was conducted using the P450-Glo™ assay (Promega, Japan), according to the manufacturer’s instructions. Briefly, cells were seeded in a 96-well plate at a density of 1×10^4 cells/well. Twenty-four hours later, test compounds and the luminescent substrate included in the kit were added into the culture media. Following 1 hour of incubation, the detection reagent was added, and the luminescence generated by the metabolic substrate within the culture media was measured using an Infinite F500 plate reader ([…]).
(§2) Curve fitting was performed using the SigmaPlot 13.0 statistical software (Systat Software, IL, USA). […] Data were presented as means ± S.D. Statistical analyses were carried out using unpaired Student’s t test. The level of statistical significance was set at P< 0.05.
(§3) Twenty compounds that are known to inhibit CYPs were used to calculate IC50 values in TC-HepG2 cells, which were then compared to those in primary human hepatocytes.
(§4) Briefly, CYP inhibitors were added to the culture media at the same time as the metabolic substrate to test direct inhibition (DI) or 1 hour prior to the addition of the metabolic substrate to test time-dependent inhibition (TDI).

[2] = target: T1, CYP2D6; assay: cell-based; assay type: in vitro ADME; design: endogenous in cells; host or cells: primary human hepatocytes; conditions: primary human hepatocytes; mean ± S.D. of triplicate
[3] = tested on: HepG2 cells
[4] = tested on: TC-HepG2 cells
[5] = target: T2, CYP3A4 (Homo sapiens, UniProt P08684); assay: in vitro
Experimental: as §1
Fig 6G–6I show the plots to determine the rate of inactivation (kobs) for the three inhibitors as depicted in Fig 6A–6F.
Macrolides (0–100 μM/L) were preincubated at 37°C for 0–30 min, and the reaction was initiated by the addition of CYP3A-specific substrate for 30 min. (G—I) Apparent inactivation rate (kobs) was estimated graphically from the slope of the plot for the natural log enzyme activity remaining after preincubation against preincubation time and was corrected for any loss of activity in the absence of the inhibitor. kinact and Ki,app values were obtained from a double reciprocal plot of kobs against inhibitor concentration. Closed circles represent TC-HepG2 cells, and opened circles represent parental HepG2 cells. Each symbol represents the average of triplicate determinations.

[6] = target: T2, CYP3A4
Experimental: as §1, §2, §3, §4
Target sequence in this assay (P08684 2-503): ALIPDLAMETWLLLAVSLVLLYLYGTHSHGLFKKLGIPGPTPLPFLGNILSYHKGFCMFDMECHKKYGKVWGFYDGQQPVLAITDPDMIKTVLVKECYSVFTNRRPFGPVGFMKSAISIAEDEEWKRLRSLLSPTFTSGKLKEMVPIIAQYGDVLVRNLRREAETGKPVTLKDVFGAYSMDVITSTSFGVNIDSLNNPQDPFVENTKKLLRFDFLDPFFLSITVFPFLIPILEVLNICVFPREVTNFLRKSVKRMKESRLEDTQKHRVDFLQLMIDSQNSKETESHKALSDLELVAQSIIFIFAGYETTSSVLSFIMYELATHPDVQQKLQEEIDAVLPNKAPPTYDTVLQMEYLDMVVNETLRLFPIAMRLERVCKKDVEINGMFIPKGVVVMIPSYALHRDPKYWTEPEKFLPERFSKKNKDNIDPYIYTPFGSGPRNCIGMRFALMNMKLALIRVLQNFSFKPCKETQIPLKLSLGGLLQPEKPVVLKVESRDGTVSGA

[7] = target: T3, CYP2C19 (Homo sapiens, UniProt P33261); assay: cell-based; assay type: in vitro ADME; design: endogenous in cells; host or cells: primary human hepatocytes; conditions: primary human hepatocytes; mean ± S.D. of triplicate
[8] = target: T3, CYP2C19; assay: cell-based
Experimental: as §1, §2, §3, §4

[9] = target: CYP2C9 (Homo sapiens, UniProt P11712); conditions: TC-HepG2 cells, Fig 5
Experimental: as §1, §2, §3, §4

T1 sequence (P10635 whole entry): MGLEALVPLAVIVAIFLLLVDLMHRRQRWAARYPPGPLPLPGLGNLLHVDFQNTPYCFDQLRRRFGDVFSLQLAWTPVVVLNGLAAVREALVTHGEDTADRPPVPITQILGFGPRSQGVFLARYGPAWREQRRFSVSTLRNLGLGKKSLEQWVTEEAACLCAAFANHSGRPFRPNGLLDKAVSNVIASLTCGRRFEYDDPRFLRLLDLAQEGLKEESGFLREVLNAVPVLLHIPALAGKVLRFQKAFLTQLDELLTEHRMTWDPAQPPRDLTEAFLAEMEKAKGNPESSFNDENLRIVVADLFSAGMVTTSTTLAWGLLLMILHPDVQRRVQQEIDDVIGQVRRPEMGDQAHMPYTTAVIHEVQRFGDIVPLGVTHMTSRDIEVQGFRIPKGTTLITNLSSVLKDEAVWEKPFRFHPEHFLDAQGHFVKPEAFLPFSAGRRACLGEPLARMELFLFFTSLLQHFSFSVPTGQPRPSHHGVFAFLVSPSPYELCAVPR
T3 sequence (P33261 whole entry): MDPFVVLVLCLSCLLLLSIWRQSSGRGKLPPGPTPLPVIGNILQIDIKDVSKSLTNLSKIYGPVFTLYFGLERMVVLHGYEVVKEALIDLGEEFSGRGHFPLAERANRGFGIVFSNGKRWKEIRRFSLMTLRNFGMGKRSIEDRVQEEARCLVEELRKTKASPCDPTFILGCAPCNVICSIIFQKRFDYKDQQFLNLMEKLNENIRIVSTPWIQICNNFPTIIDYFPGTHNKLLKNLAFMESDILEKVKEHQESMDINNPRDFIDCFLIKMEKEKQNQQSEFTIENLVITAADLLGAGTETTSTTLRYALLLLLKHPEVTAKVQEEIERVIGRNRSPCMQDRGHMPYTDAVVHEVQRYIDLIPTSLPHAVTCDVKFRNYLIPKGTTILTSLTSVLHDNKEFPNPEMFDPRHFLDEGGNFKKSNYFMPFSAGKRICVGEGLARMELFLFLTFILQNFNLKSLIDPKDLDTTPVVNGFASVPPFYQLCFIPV
Chain of CYP2C9 (P11712 whole entry): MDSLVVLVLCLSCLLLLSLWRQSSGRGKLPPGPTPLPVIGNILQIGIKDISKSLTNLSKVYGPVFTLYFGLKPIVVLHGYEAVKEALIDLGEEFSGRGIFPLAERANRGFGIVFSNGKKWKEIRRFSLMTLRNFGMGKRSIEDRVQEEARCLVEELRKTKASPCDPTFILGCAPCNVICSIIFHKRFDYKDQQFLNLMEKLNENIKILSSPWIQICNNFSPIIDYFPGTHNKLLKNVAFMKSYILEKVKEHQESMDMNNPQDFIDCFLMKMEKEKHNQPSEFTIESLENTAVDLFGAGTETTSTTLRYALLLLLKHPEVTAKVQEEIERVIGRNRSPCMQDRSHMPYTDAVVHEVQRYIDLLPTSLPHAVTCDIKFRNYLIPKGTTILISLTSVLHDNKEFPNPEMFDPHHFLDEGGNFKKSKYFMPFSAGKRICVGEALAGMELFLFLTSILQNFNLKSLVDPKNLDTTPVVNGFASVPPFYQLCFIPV

Molecule: Fc1ccc([C@@H]2CCNC[C@H]2COc2ccc3c(c2)OCO3)cc1 [Paroxetine]
- inhibitory effect with 1 hour preincubation (TDI) compared with simultaneous addition of inhibitor and substrate (DI), CYP2D6 [1]: higher

Molecule: CN(C/C=C/C#CC(C)(C)C)Cc1cccc2ccccc12 [Terbinafine]
- IC50 [1]: 0.0021 ± 0.0002 µM
- IC50 [2]: 0.0099 ± 0.0002 µM

Molecule: aflatoxin B1
- toxicity in parental HepG2 cells lacking CYPs [3]: neither compound was toxic
- IC50 in TC-HepG2 cells compared with HepG2 cells [4]: lower

Molecule: COc1cc2c(c3oc4cccc(O)c4c(=O)c13)[C@@H]1C=CO[C@@H]1O2 [sterigmatocystin]
- toxicity in parental HepG2 cells lacking CYPs [3]: neither compound was toxic
- cell survival rate in TC-HepG2 cells compared with parental HepG2 cells [4]: significantly lower
- survival of TC-HepG2 cells [4]: concentration-dependent decrease

Molecule: CC[C@H]1OC(=O)[C@H](C)[C@@H](O[C@H]2C[C@@](C)(OC)[C@@H](O)[C@H](C)O2)[C@H](C)[C@@H](O[C@@H]2O[C@H](C)C[C@H](N(C)C)[C@H]2O)[C@](C)(OC)C[C@@H](C)C(=O)[C@H](C)[C@@H](O)[C@]1(C)O [Clarithromycin]
- suppression of the generation of metabolites of the luminescent CYP3A4 substrate ([5]; 0-100 μM added 10, 20 or 30 min before substrate (Fig 6)): time- and concentration-dependent manner
- KI (inactivation) ([5]; hepatocytes): 16 ± 4.3 µM
- KI (inactivation) ([5]; human): 3.76 ± 0.42 µM
- inhibitory effect with 1 hour preincubation (TDI) compared with simultaneous addition of inhibitor and substrate (DI), CYP3A4 ([6]; TC-HepG2 cells, Fig 5): higher
- inhibitory effect on CYP3A4 metabolic activity ([6]; three TC-HepG2 clones (Fig 3C)): concentration-dependent inhibitory effect

Molecule: C#C[C@]1(O)CC[C@H]2[C@@H]3CCc4cc(O)ccc4[C@H]3CC[C@@]21C [Ethinylestradiol]
- inhibitory effect with 1 hour preincubation (TDI) compared with simultaneous addition of inhibitor and substrate (DI), CYP3A4 ([6]; TC-HepG2 cells, Fig 5): higher

Molecule: O=C(O)COc1ccc(C(=O)c2cccs2)c(Cl)c1Cl [Tienilic acid]
- IC50 [7]: 0.55 ± 0.02 µM
- IC50 [8]: 5.7 ± 1.7 µM
- inhibitory effect with 1 hour preincubation (TDI) compared with simultaneous addition of inhibitor and substrate (DI), CYP2C9 [9]: higher

Molecule: CC[C@H]1OC(=O)[C@H](C)[C@@H](O[C@H]2C[C@@](C)(OC)[C@@H](O)[C@H](C)O2)[C@H](C)[C@@H](O[C@@H]2O[C@H](C)C[C@H](N(C)C)[C@H]2O)[C@](C)(O)C[C@@H](C)/C(=N\OCOCCOC)[C@H](C)[C@@H](O)[C@]1(C)O [Roxithromycin]
- suppression of the generation of metabolites of the luminescent CYP3A4 substrate [5]: time- and concentration-dependent manner
- KI (inactivation) ([5]; hepatocytes): 13.1 ± 4.7 µM
- kinact ([5]; hepatocytes): 0.000161 s⁻¹
- KI (inactivation) ([5]; human): 4.6 ± 0.6 µM
- kinact ([5]; human): 0.000431 s⁻¹
- inhibitory effect with 1 hour preincubation (TDI) compared with simultaneous addition of inhibitor and substrate (DI), CYP3A4 [6]: higher
